{"source": "paper PMC11421016", "about": "“Biotransformation and Epithelial Toxicity of Prenylated Phenolics from Licorice Roots (Glycyrrhiza spp.) in 3D Apical-Out Mucus-Producing Human Enteroids” (Journal of Agricultural and Food Chemistry, 2024)", "test_system": "human apical-out ileal enteroids", "assay": "Biotransformation in apical-out ileal enteroids (RP-UHPLC-PDA-MSn)", "type": "in vitro ADME", "conditions": "glycy 265 μM at t = 0 h", "protocol": "Biotransformation of glab, licoA, and glycy in apical-out and apical-in enteroids was evaluated after 0, 4, and 24 h of incubation. For this, apical-out enteroids were stimulated with 50 μg mL^–1 (154 μM) glab, or with 100 μg mL^–1 licoA (296 μM), or 100 μg mL^–1 glycy (272 μM), and apical-in enteroids were stimulated with 50 μg mL^–1 glab (154 μM), 50 μg mL^–1 licoA (148 μM), or 50 μg mL^–1 glycy (136 μM). […] For apical-out enteroids, parent compounds and their transformation products were assessed on the enteroids’ apical (facing the medium) and basolateral side (inside the enteroids) and intracellularly. In apical-in enteroids, parent compounds and metabolites were assessed on the basolateral side (facing the medium). For the apical release, apical-out enteroids were pelleted (250g, 3 min, 4 °C), and the supernatant was used for LC-MS analysis, after which the enteroids were washed with PBS. Enteroids in a suspension in fresh PBS were broken up by vigorously pipetting up and down approximately for 20 times, after which enteroids were pelleted and the supernatant was used to determine basolateral release by using LC-MS. Enteroids were washed with PBS, and the enteroids’ cells in fresh PBS were disrupted on ice with a digital sonifier (Branson Ultrasonics Corporation, Danbury, CT, USA) with the following settings: a 5 s pulse, a 10 s pause, an amplitude of 55%, and 12 cycles. Enteroids were pelleted, and the supernatant was used as a measure for intracellular release and measured with LC-MS.\nSamples were separated on a Thermo Vanquish UHPLC system (Thermo Scientific, San Jose, CA, USA) equipped with a pump, a degasser, an autosampler, and a PDA detector, as described elsewhere.[15] Eluents used were (A) LC-MS-grade MQ + 0.1% FA (v/v) and (B) LC-MS-grade ACN + 0.1% FA (v/v). The elution program was started by running isocratically at 1% B for 1.09 min followed by a 1.09–26.16 min linear gradient to 70% B, a 26.16–27.25 min linear gradient to 100% B, and 27.25–32.70 min isocratically at 100% B. The eluent was adjusted to start conditions in 1.09 min followed by equilibration of 5.45 min.\nMass spectrometric data were acquired using an LTQ Velos Pro linear ion trap mass spectrometer (Thermo Scientific), equipped with a heated ESI probe coupled in-line to the Vanquish UHPLC system, as described elsewhere.[15] Data were processed using Xcalibur 4.1 (Thermo Scientific).\nQuantification of glab, licoA, glycy, and produced metabolites was based on UV absorbance at 280 nm (glab), 340–390 nm (licoA), and 320–370 nm (glycy). For this, a seven-point calibration (0.01–150 μg mL^–1) curve based on external standards of glab, licoA, and glycy (R^2 > 0.999) was used. UV peaks were integrated using the AVALON integration algorithm with the autocalc function (Xcalibur 4.1). Metabolites were quantified as glab, licoA, or glycy equivalents."}
{"substance": "glycycoumarin-glucuronide [glycy-glucuronide]", "values": [{"measurement": "glucuronide concentration released at the apical side", "setting": "after 4 h", "value": "~3", "unit": "µM"}, {"measurement": "glucuronide concentration released at the apical side", "setting": "after 24 h", "value": "~16", "unit": "µM"}]}
